The values that follow come from ChEMBL document CHEMBL1649364, “Synthesis and antifungal activity of some substituted phenothiazines and related compounds” (2011).

The source made the active and inactive calls. The calls are words filed in the database; no cut-off is given here.

Assay [1] relates to Candida albicans. Description: Antifungal activity against Candida albicans by diffusion test. Format: functional, organism-based.
The test system of assay [2] is Aspergillus nidulans. Put plainly: Antifungal activity against Aspergillus nidulans by diffusion test. Format: functional, organism-based.
Assay [3] can be described thus: Antifungal activity against Aspergillus fumigates by microdilution test. Format: functional. Background: Broth dilution looks for growth in wells or tubes with falling amounts of substance.
Assay [4] relates to Pichia kudriavzevii. Description: Antifungal activity against Candida krusei by diffusion test. Format: functional, organism-based.
Assay [5] has as its system Exophiala spinifera. Put plainly: Antifungal activity against Exophiala spinifera by microdilution test. Format: functional.
Assay [6] in a line: Antifungal activity against Cladophialophora carrionii by microdilution test. Format: functional.
Assay [7] concerns Aspergillus terreus. Put plainly: Antifungal activity against Aspergillus terreus by diffusion test. Format: functional, organism-based.
The subject of assay [8] is Exophiala spinifera. Description: Antifungal activity against Exophiala spinifera by diffusion test. Format: functional, organism-based.
The nature of assay [9]: Antifungal activity against Exophiala xenobiotica by microdilution test. Format: functional.
The nature of assay [10]: Antifungal activity against Exophiala oligosperma by microdilution test. Format: functional.
The test system of assay [11] is Candida parapsilosis. Description: Antifungal activity against Candida parapsilosis by diffusion test. Format: functional, organism-based.
The test system of assay [12] is Aspergillus niger. Put plainly: Antifungal activity against Aspergillus niger by diffusion test. Format: functional, organism-based.
Assay [13] deals with Nakaseomyces glabratus. Put plainly: Antifungal activity against Candida glabrata by diffusion test. Format: functional, organism-based.
Assay [14] concerns Cryptococcus neoformans. Put plainly: Antifungal activity against Cryptococcus neoformans by diffusion test. Format: functional, organism-based.
Assay [15] is described as follows: Antifungal activity against Aspergillus fumigates by diffusion test. Format: functional.
The subject of assay [16] is Candida parapsilosis. Put plainly: Antifungal activity against Candida parapsilosis by microdilution test. Format: functional.
Assay [17] is described as follows: Antifungal activity against Cladophialophora carrionii by diffusion test. Format: functional.
Assay [18] deals with Aspergillus flavus. Description: Antifungal activity against Aspergillus flavus by diffusion test. Format: functional, organism-based.
Assay [19] is described as follows: Antifungal activity against Exophiala oligosperma by diffusion test. Format: functional.
Assay [20] concerns Meyerozyma guilliermondii. Put plainly: Antifungal activity against Candida guilliermondii by diffusion test. Format: functional, organism-based.
Assay [21] deals with Aspergillus niger. Description: Antifungal activity against Aspergillus niger by microdilution test. Format: functional.
In assay [22] the test system is Candida albicans. Put plainly: Antifungal activity against Candida albicans by microdilution test. Format: functional.
Assay [23] can be described thus: Antifungal activity against Exophiala xenobiotica by diffusion test. Format: functional.
The test system of assay [24] is Nakaseomyces glabratus. Description: Antifungal activity against Candida glabrata by microdilution test. Format: functional.
Assay [25] has as its system Meyerozyma guilliermondii. Description: Antifungal activity against Candida guilliermondii by microdilution test. Format: functional.
Assay [26] concerns Aspergillus nidulans. Description: Antifungal activity against Aspergillus nidulans by microdilution test. Format: functional, organism-based.
In assay [27] the test system is Pichia kudriavzevii. Description: Antifungal activity against Candida krusei by microdilution test. Format: functional.
Assay [28] deals with Aspergillus terreus. Put plainly: Antifungal activity against Aspergillus terreus by microdilution test. Format: functional.
The subject of assay [29] is Cryptococcus neoformans. Put plainly: Antifungal activity against Cryptococcus neoformans by microdilution test. Format: functional.
Assay [30] deals with Aspergillus flavus. Put plainly: Antifungal activity against Aspergillus flavus by microdilution test. Format: functional.

On to `CN(C)S(=O)(=O)c1ccc2c(c1)Nc1ccccc1S2`, for which the result in the assay with Candida albicans [1], in the assay with Aspergillus nidulans [2], in the assay with Pichia kudriavzevii [4], in the assay with Aspergillus terreus [7], in the assay on Exophiala spinifera [8] and in the assay with Candida parapsilosis [11] was Active. The outcome (in the assay with Aspergillus niger [12]; in the assay on Nakaseomyces glabratus [13]; in the assay with Cryptococcus neoformans [14]; in assay [15]; in assay [17]; with Aspergillus flavus [18]) was Active. For the same compound, the result in assay [19], in assay [20] and in assay [23] was Active. The result (in [3]; in the assay on Exophiala spinifera [5]; in assay [6]; in assay [9]; in assay [10]; in the assay on Candida parapsilosis [16]) was inactive. Also, the outcome (in the assay with Aspergillus niger [21]; in the assay with Candida albicans [22]; in the assay on Nakaseomyces glabratus [24]; in assay [25]; in the assay with Aspergillus nidulans [26]; in the assay on Pichia kudriavzevii [27]) was inactive. In addition, the outcome in the assay on Aspergillus terreus [28], in the assay on Cryptococcus neoformans [29] and in the assay with Aspergillus flavus [30] was inactive.

Consider `O=C(CCl)Nc1ccccc1Sc1ccccc1`, for which the result (in [3]; with Exophiala spinifera [5]; in assay [6]; in assay [9]; in assay [10]; in the assay on Candida parapsilosis [16]) was inactive. Moreover, the outcome (in the assay with Aspergillus niger [21]; in the assay on Candida albicans [22]; in the assay on Nakaseomyces glabratus [24]; in [25]; in the assay on Aspergillus nidulans [26]; in the assay with Pichia kudriavzevii [27]) was inactive. The result in the assay on Aspergillus terreus [28], with Cryptococcus neoformans [29] and in the assay on Aspergillus flavus [30] was inactive.

Take `O=C(CCl)n1c2ccccc2c2ccccc21`: the outcome (in assay [3]; with Exophiala spinifera [5]; in assay [6]; in [9]; in [10]; with Candida parapsilosis [16]) was inactive. For the same compound, the outcome (with Aspergillus niger [21]; with Candida albicans [22]; in the assay on Nakaseomyces glabratus [24]; in assay [25]; in the assay on Aspergillus nidulans [26]; in the assay on Pichia kudriavzevii [27]) was inactive. Besides, the result in the assay with Aspergillus terreus [28], in the assay on Cryptococcus neoformans [29] and in the assay with Aspergillus flavus [30] was inactive.

As to `CN(C)S(=O)(=O)c1ccc2c(c1)N(C(=O)CCl)c1ccccc1S2`, the result (in [3]; in the assay on Exophiala spinifera [5]; in assay [6]; in assay [9]; in assay [10]; in the assay on Candida parapsilosis [16]) was inactive. Besides, the result (with Aspergillus niger [21]; in the assay with Candida albicans [22]; in the assay on Nakaseomyces glabratus [24]; in assay [25]; with Aspergillus nidulans [26]; in the assay with Pichia kudriavzevii [27]) was inactive. For the same compound, the outcome in the assay with Aspergillus terreus [28], in the assay on Cryptococcus neoformans [29] and with Aspergillus flavus [30] was inactive.

Take `OCCC1CCNCC1`: the result (in assay [3]; with Exophiala spinifera [5]; in [6]; in assay [9]; in assay [10]; in the assay on Candida parapsilosis [16]) was inactive. The result (in the assay with Aspergillus niger [21]; with Candida albicans [22]; in the assay on Nakaseomyces glabratus [24]; in assay [25]; with Aspergillus nidulans [26]; in the assay with Pichia kudriavzevii [27]) was inactive. Moreover, the outcome with Aspergillus terreus [28], in the assay with Cryptococcus neoformans [29] and with Aspergillus flavus [30] was inactive.
